Data from patent US20230295068A1, “NOVEL CYCLOALKENONE COMPOUND OR SALT THEREOF” (TAIHO PHARMACEUTICAL CO., LTD., priority 2020, published 2023).

System: ND3 neuronal cell line
Assay: Measurement of nerve growth stimulation effect (neurite bearing assay, neurite length assay, number of cells)
Type: cell-based
Details: relative cell number, DMSO well = 1; for viability at 1 µM / viability at 3 µM / viability at 5 µM / viability at 10 µM / viability at 30 µM / viability at 100 µM: 6 hours; for Number of cells: ND3 cells, 6 h
Method: To evaluate the nerve growth stimulation effect, neurite bearing assay (proportion of neurite-bearing cells) and neurite length assay (neurite length) were analyzed with reference to the method of Topalli et al. (Brain Research 1030 (2004), pp. 116-124).
An ND3 neuronal cell line (European Collection of Authenticated Cell Cultures) was seeded in a DMEM medium containing 10% fetal bovine serum (0.6×10^4 cells/1 mL) in a 24-well plate. 24 hours later, the medium of seeded cells was removed, and a solution in which the compound of the present disclosure that was sequentially diluted in dimethyl sulfoxide (DMSO) was adjusted in DIEM containing 0.1% bovine serum albumin so that the DMSO final concentration was 0.1%, was added to cells (evaluation performed in duplicate). After six hours from the addition, the proportion of neurite-bearing cells (the number of cells having a neurite longer than the diameter of the cell body/number of total cells), and the neurite length per cell were analyzed. The number of total cells, proportion of neurite-bearing cells, and neurite length per cell were analyzed using a MetaMorph Neurite Outgrowth Application Module (Molecular Devices Japan K.K.). The number of cells was defined as the relative cell number, taking the number of cells per well containing DMSO as 1. The relative activity of each compound when the maximum activity of 3-(15-methoxypentadecyl)-2,4,4-trimethylcyclohexa-2-en-1-one (compound 24) in each test was defined as 1 is shown (Table 9). For the compounds for which multiple tests were conducted, the average value was shown. Data with a number of cells of 0.5 or more was also used. Accordingly, if the number of cells was less than 0.5, the neurite length per cell and the proportion of neurite-bearing cells were defined as “-”.

| SMILES | viability at 1 µM | viability at 3 µM | viability at 5 µM | viability at 10 µM | viability at 30 µM | viability at 100 µM | Number of cells (1 μM compound) | Number of cells (3 μM compound) | Number of cells (5 μM compound) | Number of cells (10 μM compound) | Number of cells (30 μM compound) | Number of cells (100 μM compound) |
| --- | --- | --- | --- | --- | --- | --- | --- | --- | --- | --- | --- | --- |
| CC1=C(CCCCCCCCCCCCCOC(C)C)C(C)(C)CCC1=O [Compound 18, 3-(13-isopropoxytridecyl)-2,4,4-trimethylcyclohex-2-en-1-one] | 116% | 106% | 89% | 97% | 95% | 89% |  |  |  |  |  |  |
| CC1=C(CCCCCCCCCCCCCCC#N)C(C)(C)CCC1=O [Compound 34, 15-(2,6,6-trimethyl-3-oxocyclohex-1-en-1-yl)pentadecanitrile] | 106% | 101% | 96% | 98% | 98% | 97% |  |  |  |  |  |  |
| CC1=C(CCCCCCCCCCCCCCC(=O)N(C)C)C(C)(C)CCC1=O [Compound 54, N,N-dimethyl-15-(2,6,6-trimethyl-3-oxocyclohex-1-en-1-yl)pentadecanamide] | 93% | 112% | 87% | 90% | 4% | 5% |  |  |  |  |  |  |
| COCCCCCCCCCCCCCCCC1=CC(=O)CCC1 [Compound 37, 3-(15-methoxypentadecyl)cyclohex-2-en-1-one] | 99% | 102% | 84% | 89% | 107% | 97% |  |  |  |  |  |  |
| [2H]C([2H])([2H])OCCCCCCCCCCCCCCCC1=C(C)C(=O)CCC1(C)C [Compound 27, 3-(15-(methoxy-d3)pentadecyl)-2,4,4-trimethylcyclohex-2-en-1-one] |  | 90% | 87% | 83% | 83% | 88% |  |  |  |  |  |  |
| COCCCCCCCCCCCCCCCC1C(C)C(=O)CCC1(C)C (centres unmarked) [Compound 63, 3-(15-methoxypentadecyl)-2,4,4-trimethylcyclohexan-1-one] |  |  |  |  |  |  | 1.13 | 1.05 | 0.84 | 0.91 | 1.11 | 1.16 |
| CC1=C(CCCCCCCCCCCCCCC#N)C(C)(C)CC1=O [Compound 75, 15-(2,5,5-trimethyl-3-oxocyclopent-1-en-1-yl)pentadecanitrile] |  |  |  |  |  |  | 0.89 | 0.93 | 0.94 | 0.80 | 0.75 | 0.80 |
| CC1=C(CCCCCCCCCCCCCCCCOC(C)C)C(C)(C)CCC1=O [Compound 31, 3-(16-isopropoxyhexadecyl)-2,4,4-trimethylcyclohex-2-en-1-one] | 99% | 93% | 75% | 77% | 84% | 93% |  |  |  |  |  |  |
| CC1=C(CCCCCCCCCCCCCCCOC(=O)N(C)C)C(C)(C)CCC1=O [Compound 36, 15-(2,6,6-trimethyl-3-oxocyclohex-1-en-1-yl)pentadecyl dimethylcarbamate] | 91% | 107% | 97% | 94% | 98% | 86% |  |  |  |  |  |  |
| COCCCCCCCCCCCCC1=C(C)C(=O)CC1(C)C [Compound 70, 3-(12-methoxydodecyl)-2,4,4-trimethylcyclopent-2-en-1-one] |  |  |  |  |  |  | 0.84 | 0.91 | 0.91 | 0.86 | 0.79 | 0.73 |
| CNC(=O)OCCCCCCCCCCCCCCCC1=C(C)C(=O)CCC1(C)C [Compound 55, 15-(2,6,6-trimethyl-3-oxocyclohex-1-en-1-yl)pentadecylmethylcarbamate] | 105% | 102% | 85% | 85% | 69% | 25% |  |  |  |  |  |  |
| CC1=C(CCCCCCCCCCCCCCCOC(F)(F)F)C(C)(C)CCC1=O [Compound 49, 2,4,4-trimethyl-3-(15-(trifluoromethoxy)pentadecyl)-cyclohex-2-en-1-one] | 96% | 100% | 101% | 101% | 103% | 108% |  |  |  |  |  |  |
| CC1=C(CCCCCCCCCCCCCCOC(C)C)C(C)(C)CCC1=O [Compound 23, 3-(14-isopropoxytetradecyl)-2,4,4-trimethylcyclohex-2-en-1-one] | 103% | 112% | 98% | 95% | 98% | 102% |  |  |  |  |  |  |
| COCCCCCCCCCCCCCCCC1=C(C)C(O)CCC1(C)C (centres unmarked) [Compound 65, 3-(15-methoxypentadecyl)-2,4,4-trimethylcyclohex-2-en-1-ol] |  |  |  |  |  |  | 1.05 | 1.09 | 0.86 | 0.87 | 1.05 | 1.09 |
| CC1=C(CCCCCCCCCCCCO)C(C)(C)CCC1=O [Compound 1, 3-(12-hydroxydodecyl)-2,4,4-trimethylcyclohex-2-en-1-one, reference compound] | 103% | 105% | 99% | 103% | 99% | 9% |  |  |  |  |  |  |
| CC1=C(CCCCCCCCCCCCCO)C(C)(C)CCC1=O [Compound 2, 3-(13-hydroxytridecyl)-2,4,4-trimethylcyclohex-2-en-1-one, reference compound] | 113% | 102% | 96% | 96% | 19% | 9% |  |  |  |  |  |  |
| COCCCCCCCCCCCCCCCC1=CC(=O)CCC12CC2 [Compound 43, 4-(15-methoxypentadecyl)spiro[2,5]oct-4-en-6-one] | 97% | 97% | 85% | 86% | 96% | 101% |  |  |  |  |  |  |
| COCCCCCCCCCCCCCCCC1=C(C)C(N)CCC1(C)C (centres unmarked) [Compound 66, 3-(15-methoxypentadecyl)-2,4,4-trimethylcyclohex-2-en-1-amine] |  |  |  |  |  |  | 1.15 | 1.11 | 0.80 | 0.79 | 0.39 | 0.04 |
| COCCCCCCCCCCCCCCCC1=C(C)C(=O)C=CC1(C)C [Compound 41, 3-(15-methoxypentadecyl)-2,4,4-trimethylcyclohex-2,5-dien-1-one] | 110% | 112% | 82% | 93% | 109% | 114% |  |  |  |  |  |  |
| CCCC1=C(CCCCCCCCCCCCCCCOC)C(C)(C)CCC1=O [Compound 61, 3-(15-methoxypentadecyl)-4,4-dimethyl-2-propylcyclohex-2-en-1-one] |  |  |  |  |  |  | 0.84 | 0.82 | 0.87 | 0.77 | 0.92 | 0.82 |
